These results are taken from PubChem BioAssay (NCI).

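These data come from cells grown in 96-well plates and exposed to compound for 48 hours at five concentrations. At the GI50, growth is halved. The concentration for full growth arrest is given as TGI.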

Test systems include A498 renal; CAKI-1 renal; COLO 205 colon; HT29 colon; M14 melanoma; NCI-H23 lung; OVCAR-8 ovarian; SK-MEL-5 melanoma; SNB-19 CNS; UACC-257 melanoma; UO-31 renal.
Common to all, as to experiment: DTP human tumour cell line panel, 48 h

Turning to `COc1cc2c3c(n(CCCn4cncn4)c(=O)c2cc1OC)-c1cc2c(cc1C3=O)OCO2`, the GI50 (usually the concentration at which growth is held to half of that of the control) was 16.8 µM in the assay with A498 renal; more than 100 µM with COLO 205 colon; more than 73.1 µM in the assay with HT29 colon; less than 0.01 µM in the assay on M14 melanoma; 0.0906 µM with NCI-H23 lung; 0.671 µM with SK-MEL-5 melanoma. The GI50 is more than 100 µM in the assay with UACC-257 melanoma and 0.0913 µM with UO-31 renal. The TGI (usually the concentration at which net growth stops) is more than 100 µM with A498 renal; more than 100 µM in the assay on CAKI-1 renal; more than 100 µM in the assay with COLO 205 colon; more than 100 µM in the assay with HT29 colon; more than 100 µM in the assay with M14 melanoma; 57.5 µM with NCI-H23 lung. Also, the total growth inhibition concentration (TGI) in the assay with OVCAR-8 ovarian is more than 100 µM; in the assay with SK-MEL-5 melanoma, 31 µM; in the assay with SNB-19 CNS, more than 100 µM; in the assay with UACC-257 melanoma, more than 100 µM; in the assay on UO-31 renal, more than 100 µM.
